Assay results from PMC9863764, “Roles of Human Liver Cytochrome P450 Enzymes in Tenatoprazole Metabolism” (Pharmaceutics, 2022).
Where “and” joins values, the source holds several entries; their conditions need not be identical. Equal entries are not always repeated.

How the values were obtained:
Type in all cases: in vitro ADME
human CYP3A4 [1] = biological target: T1, human CYP3A4 (Homo sapiens, UniProt P08684); experiment: Sulfoxidation of tenatoprazole sulfide by recombinant CYP3A4 (chiral chromatography)
T1 construct: made in house; host or cells: Escherichia coli (membrane fractions)
Method: The sulfoxidation reaction of tenatoprazole sulfide by CYP3A4 was measured by chiral chromatography. […] The reaction was initiated by adding NGS at 37 °C. […] After the residues were solubilized in 180 μL mobile phase, 30 μL samples were injected onto a Chiralpak AD column (4.6 × 150 mm, 10 μm; Daicel Corporation, Osaka, Japan) with a hexane-ethanol mixture (30:70, v/v) as the mobile phase. The products formed were analyzed by HPLC at […]. […] The kinetic parameters (kcat and Km) were determined by using a Michaelis-Menten nonlinear regression analysis with GraphPad Prism (GraphPad Software, San Diego, CA, USA).

human CYP3A4 [2] = biological target: T1, human CYP3A4; experiment: Steady-state kinetics of tenatoprazole oxidation by recombinant CYP3A4; settings: 30 min incubation, LC-QTOF-MS
Method: Pooled liver microsomes from human samples were obtained from ThermoFisher Scientific (Waltham, MA, USA). […] Membrane fractions expressing both P450 and CPR of E. coli were prepared as described previously and were used for the catalytic activity assays. […] The reaction was started by adding NGS and the incubation was continued for the indicated time at 37 °C. Incubation was then stopped by adding ice-chilled ethyl acetate (0.50 mL) and omeprazole (IS) was added to a final concentration of 20 μM. […] Phenomenex, Torrance, CA, USA). The products formed were analyzed by HPLC at […]. The HPLC profile of the authentic chemicals (i.e., tenatoprazole, tenatoprazole sulfide, and their metabolites) were used to identify the major metabolites of tenatoprazole and tenatoprazole sulfide produced by the recombinant P450s. […] The kinetic parameters (kcat and Km) were determined by using a Michaelis-Menten nonlinear regression analysis with GraphPad Prism (GraphPad Software, San Diego, CA, USA). To further characterize the nature of the metabolites, the reaction mixtures were additionally analyzed by a 6530 Quadrupole Time-of-Flight (QTOF) mass spectrometer (MS) (Agilent, Santa Clara, CA, USA) coupled with a 1290 Infinity ultra-performance liquid chromatography (UPLC) system (Agilent). […] The reaction was initiated by adding NGS at 37 °C. […] Then, the upper layer was transferred to a glass tube and dried under nitrogen stream. The residues were reconstituted in 0.30 mL acetonitrile, then 1 μL samples were injected into an LC-MS system. The analytical column was a Hypersil Gold C18 column (100 × 2.1 mm, 1.9 μm; ThermoFisher Scientific). […] A gradient program was used for HPLC separation, and the flow rate was 0.4 mL/min. […] The column and autosampler were kept at 35 °C and 4 °C, respectively, during analysis. Electrospray ionization was performed in the positive ion mode. The sheath gas flow rate was 8 L/min. The flow rate of drying gas was 12 L/min at 350 °C, and the nebulizer's temperature was set at 350 °C. The capillary voltage was 4500 V in the positive mode, and that of the fragmentor was 175 V. Data acquisition were done over a scan range from 50 m/z to 1000 m/z in the centroid mode. A reference compound (C18H18O6N3P3F24; [M+H]^+ = 922.0098) was used to correct all of the masses. Tandem mass spectrometry (MS/MS) data were acquired in profile mode via autoanalysis for structural characterization with 30 eV of the collision energy.

[3] = tested on: human liver microsomes (HLMs); experiment: Time course of oxidation of tenatoprazole and tenatoprazole sulfide by human liver microsomes (HPLC); settings: human, 12 h, 500 μM, pH 7.4
Method: A racemate of tenatoprazole was used in this work because the chiral tenatoprazoles currently are not commercially available. The reactions using HLMs contained incubation at 37 °C in 0.25 mL mixtures containing P450 (0.5 mg protein/mL) in 100 mM potassium phosphate buffer (pH 7.4), an NADPH-generating system (NGS, final concentration of 10 mM glucose-6-phosphate, 0.50 mM NADP^+, 1.0 IU yeast glucose-6-phosphate dehydrogenase per mL), and 0.1 mM of tenatoprazole or tenatoprazole sulfide. Incubations generally were performed for 2 h in the presence or absence of the NGS. Tenatoprazole and its metabolites were extracted twice using cold ethyl acetate as an organic solvent. Then centrifugation (1000× g, 20 min) was done to separate the organic layer from the aqueous layer. Omeprazole was added to this solution as an internal standard (IS) at a final 20 μM concentration. The organic layer was concentrated under nitrogen gas stream. The dried residues were then dissolved in the mobile phase (180 μL) and 30 μL was injected onto the column.
High-performance liquid chromatography (HPLC) was performed on the basis of a previously developed method for tenatoprazole and its metabolites, as described elsewhere. The analytical column was a Gemini C18 column (4.6 × 150 mm, 5 μm; Phenomenex), and the HPLC mobile phase consisted of acetonitrile and 5 mM potassium phosphate buffer (pH 7.3) (25:75, v/v). The substrate and its metabolites were detected at A302. The HPLC profile of the authentic compounds (i.e., tenatoprazole and its metabolites) were measured to compare to identify the major metabolites of tenatoprazole and tenatoprazole sulfide produced by HLMs.
The time course of the oxidation of tenatoprazole and tenatoprazole sulfide by HLMs (0.5 mg protein/mL) was analyzed to the estimated yield of metabolites and percentage of each metabolite using 0.60 mM substrate in 0.25 mL of 0.10 M potassium phosphate buffer (pH 7.4). After NGS was added to initiate the reaction, the samples were incubated for the designated time (i.e., 2, 5, 10, and 30 min, and 1, 2, 4, 8, 12, and 24 h) at 37 °C. Product formation was quantified using HPLC analysis, as mentioned above.
Calibration standard curves of tenatoprazole were made using a blank control sample (a reaction mixture without substrate and IS) and 12 samples containing tenatoprazole and omeprazole (IS) covering the concentration ranges of 1–500 μM, as described previously. The peak area ratio of tenatoprazole to IS was linear with respect to the analyte concentration over the range of 1–500 μM. The metabolites were quantified by comparing the peak areas of each metabolite to the mean peak areas of the IS (20 μM omeprazole).

T1 sequence (P08684 whole entry): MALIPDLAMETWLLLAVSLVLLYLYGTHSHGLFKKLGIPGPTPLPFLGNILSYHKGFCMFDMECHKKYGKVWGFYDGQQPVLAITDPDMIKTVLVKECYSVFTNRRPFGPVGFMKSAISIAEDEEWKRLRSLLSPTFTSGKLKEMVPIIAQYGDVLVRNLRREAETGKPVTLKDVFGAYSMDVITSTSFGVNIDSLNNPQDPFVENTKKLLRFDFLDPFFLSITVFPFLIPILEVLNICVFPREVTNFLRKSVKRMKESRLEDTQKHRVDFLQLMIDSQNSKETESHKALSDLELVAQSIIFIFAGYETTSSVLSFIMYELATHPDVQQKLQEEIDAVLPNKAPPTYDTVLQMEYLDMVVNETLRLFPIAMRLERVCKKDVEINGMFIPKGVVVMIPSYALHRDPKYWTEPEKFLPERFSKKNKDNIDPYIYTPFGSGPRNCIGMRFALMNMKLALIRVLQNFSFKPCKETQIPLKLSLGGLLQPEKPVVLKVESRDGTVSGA

COc1ccc2[nH]c([S@+]([O-])Cc3ncc(C)c(OC)c3C)nc2n1 [R-tenatoprazole]
fold higher catalytic efficiency of R-tenatoprazole formation than S-tenatoprazole formation (human CYP3A4 [1]; substrate tenatoprazole sulfide, CYP3A4): 1.7 fold
kcat of product formation (human CYP3A4 [1]; substrate tenatoprazole sulfide, recombinant CYP3A4, chiral chromatography, label = product formed): 0.0667 s⁻¹ and 0.0667 ± 0.005 s⁻¹

COc1ccc2[nH]c(SCc3c(C)c(OC)c(CO)c[n+]3[O-])nc2n1 [1′-N-oxy-5′-OH tenatoprazole sulfide, 1′-N-oxy-5′-hydroxytenatoprazole sulfide]
amount of metabolite observed in CYP3A4-catalyzed reaction (human CYP3A4 [2]): only trace amounts

COc1ccc2[nH]c(SCc3ncc(C)c(OC)c3C)nc2n1 [tenatoprazole sulfide, Tenatoprazole sulfide]
conversion yield to tenatoprazole sulfide [3]: 94.8%
tenatoprazole sulfide remained ([3]; microsomes): More than 99%
sulfoxidation activity to produce tenatoprazole (human CYP3A4 [1]; recombinant CYP3A4, substrate tenatoprazole sulfide): showed the sulfoxidation activity
